Series [1] has as its system human foreskin fibroblasts (HFF). Kind of series: Cytotoxicity in human foreskin fibroblasts, day 15 (MTT / CyQUANT). In kind it is cell-based. To be noted: for IC50: Homo sapiens, Fibroblast. The method, then:
(§1) In general, the presently disclosed embryotoxicity testing protocols comprise the following sequence of steps. Studies using embryoid bodies generally comprise: a) preparation of various concentrations of test solutions in culture medium or a desired solvent; b) preparation of a cell suspension by enzymatic digestion of human embryonic stem cell colonies; c) culturing the cell suspension for formation of embryoid bodies in the presence and absence of one or more test solutions, and incubation for several days (e.g., three days) in hanging drops; d) cultivation of the embryoid bodies in bacteriological petri dishes for several days (e.g., two days) under controlled conditions; e) transfer of the embryoid bodies into 96 well plates and incubation for several days (e.g., 10 days) in the presence of one or more test solutions; and f) detection of the viability of the embryoid bodies after 15 days by MTT assay, or fluorescent or luminescent method, and isolation of RNA for studying gene expression. Studies using human foreskin fibroblasts (HFF) generally comprise: a) preparation of various concentrations of test solutions in culture medium or a desired solvent; b) plating of HFF cells in 96 well plates in the presence or absence of one or more test solutions for 15 days, changing the media and test solutions every 2 days; and c) detection of the viability of HFF after 15 days by MTT assay, or fluorescent or luminescent method. Studies using human embryonic stem cells generally comprise: a) preparation of various concentrations of test solutions in culture medium or a desired solvent; b) preparation of hES colonies by manual passage in the presence and absence of one or more test solutions, and incubation for 15 days on matrigel coated plates changing the media and test solutions every 2 days; c) disruption of the colonies after 15 days with enzymes to form single cells; d) labeling of single cells with a fluorescently-labeled dye, such as propidium iodide (“PI”); and e) detection of the percentage viability with FACS as a measure of cytotoxicity.
HFF were trypsinized, and a cell suspension of 1×10^4 cells/ml in routine culture medium was prepared. Using a multi-channel pipette, 50 μl volumes of the cell suspension (500 cells/well) was dispensed. Viability of the cells can be checked by staining an aliquot of the cell suspension with trypan blue. A viability of 90% is acceptable. The cells were incubated for 2 hours in a humidified atmosphere with 5% CO2 at 37° C., which allows for adherence of the cells. After 15 days of culture with medium changes (containing appropriate test compound concentrations) every 3 days, the viability of the cells was determined using the MTT test, which was detected quantitatively using a microplate ELISA reader at 570 nm with a 630 nm reference filter.
Cytotoxicity analysis of three cell types (hES, hEBs and HFF) was evaluated using the CyQUANT assay following compound treatment. All data were the mean of three independent experiments for each cell type. Data is represented as the mean±SE.
The endpoints of detection chosen in the study was inhibition of cell proliferation in human ES cells (IC50 hES), differentiating EBs (IC50 hEB), and in HFF (IC50 HFF), as evidenced in a cell viability assay using CyQuant assay.

In series [2] the test system is human embryoid bodies (hEB). Briefly: Cytotoxicity in human embryoid bodies, day 15 (MTT / CyQUANT). To be noted: for IC50: Homo sapiens. The method, then: as §1
The culturing of the cell suspension is done by dispensing about ¼ of the cell suspension along with test chemicals on the inner side of a 100 mm bacteriological petri dish. Around 50-80 drops are dispensed for each concentration, the untreated control, and the solvent control. The lid is turned carefully into its regular position and is put on top of a petri dish containing 5 ml of phosphate buffered saline (“PBS”). The “hanging drops” are incubated for three days in a humidified atmosphere with 5% CO2 at 37° C.
On day 3, 5 ml of freshly prepared test solution is added to the lid of the “hanging drops” petri dish. The embryoid bodies are carefully transferred from the lid of the “hanging drops” petri dish to a 60 mm bacteriological petri dish. The suspension is cultivated for two days in a humidified atmosphere with 5% CO2 at 37° C.
On the 5th day, the EBs are transferred into 96 well plates by placing 10 EBs in each well. About 150 μl of freshly prepared test solution is added to each well, and three wells are used for each concentration. The 96 well plates are incubated for […] in a humidified atmosphere with 5% CO2 at 37° C. The remaining EBs are plated on a 24 well plate coated with 0.2% gelatin and allowed to differentiate. Media was replaced every second day until day 15.
On the 15th day, an MTT assay is performed. MTT solution (5 mg/ml) is prepared in culture medium containing test chemical. The MTT solution is added to all wells and incubated at 37° C. in a humidified atmosphere of 5% CO2 for 4 hours, after which the MTT desorb solution (acidified isopropanol) is added to each well. The plate is shaken on a micrometer plate for 15 minutes to dissolve the formazan. The absorbance is measured at 550-570 nm in a microtiter plate reader using 630 nm as a reference wavelength.

For series [3] the following is noted: Table 5; cited from earlier work.
In series [4] the test system is mouse ES cells. To be noted: Table 4; from the EST (Genschow, et al., 2000); cited from earlier work.
The conditions of series [5]: cited from earlier work.
[6] abbreviates: 360 h, Table 3, mean of 3 experiments, day 15, read-out: IC50-HFF.
[7] abbreviates: Table 4, CyQuant cell viability assay, read-out: Human EST IC50 - HFF.

≈ marks a conversion by molar mass, not a printed value. Read-outs that look alike come from different tables or passages of the source.

Data on six molecules can be found in patent US20090220996A1, “In vitro Assay Methods for Classifying Embryotoxicity of Compounds” (RELIANCE LIFE SCIENCES PVT LTD., priority 2007, published 2009).

As for `O=c1[nH]cc(F)c(=O)[nH]1` [5-Fluorouracil, 5-fluorouracil], the survival percentage in series [1] (HFF, 1 μg/ml, day 15, FIG. 3A) was found to be 7%; in series [2] (hEBs, 1 μg/ml, day 15, FIG. 3A) it was 7%. Moreover, the “effect on cell viability” value is “no major effect” in series [1] (HFF, up to 0.01 μg/ml, FIG. 3A) and “significant effect” in series [2] (hEBs, 0.01 μg/ml, FIG. 3A). Also, the IC50 (usually the concentration that inhibits the measured activity by half) in series [1] (setting [6]) is 0.11 µg/mL (≈ 0.848 µM); in series [2] (360 h, read-out: IC50-hEB), 0.00114 µg/mL (≈ 0.00873 µM). Further, the “survival of hEBs until day 15” value in series [2] (1 μg/ml (highest dose)) is listed as “did not survive until day 15”.

For the molecule `Cn1c(=O)c2c(ncn2C)n(C)c1=O` [Caffeine, caffeine], the survival result in series [1] (HFF, 500 μg/ml, FIG. 3B) is given as “about 10%”; in series [2] (hEBs, 500 μg/ml, FIG. 3B), “about 10%”. The 50% inhibitory concentration (IC50) in series [1] (setting [6]) amounted to 79.3 ± 3.4 µg/mL (≈ 408 µM); in series [1] (setting [7]), 79.3 ± 3.4 µg/mL (≈ 408 µM); in series [2] (360 h, read-out: IC50-hEB), 81.6 ± 5.4 µg/mL (≈ 420 µM); in series [2] (read-out: IC50-hEBs) it was 81.6 µg/mL (≈ 420 µM). Moreover, the General toxicity entry in series [3] was “Cardiac, CNS”.

As to `COc1ccc2c(c1)c(CC(=O)O)c(C)n2C(=O)c1ccc(Cl)cc1` [Indomethacin, indomethacin], the IC50 in series [1] (setting [6]) worked out at 33.5 ± 1.3 µg/mL (≈ 93.6 µM); in series [1] (setting [7]) it was 33.5 ± 1.3 µg/mL (≈ 93.6 µM); in series [2] (360 h, read-out: IC50-hEB) it was 4.49 ± 0.84 µg/mL (≈ 12.5 µM); in series [2] (read-out: IC50-hEBs), 4.49 µg/mL (≈ 12.5 µM). Moreover, the General toxicity entry in series [3] was “Cardiac, Renal”. The “Mouse EST IC50 - mES” value in series [4] was 29 µg/mL.

On to `CC1(C)S[C@@H]2[C@H](NC(=O)Cc3ccccc3)C(=O)N2[C@H]1C(=O)O` [Penicillin G, penicillin G], for which the cell survival is reported as 1-2% in series [1] (HFF, 5000 μg/ml (highest dose), FIG. 3C); “about 60%” in series [2] (hEBs, 1000 μg/ml, CyQUANT, FIG. 4A/4B); 30% in series [2] (hEBs, 5000 μg/ml (highest dose), FIG. 3C). Moreover, the IC50-HFF in series [1] (Table 3, mean of 3 experiments, day 15) turned out to be 1661 ± 23.5 µg/mL (≈ 4970 µM). Further, the “Human EST IC50 - HFF” value in series [1] (Table 4, CyQuant cell viability assay) was found to be 1661 ± 23.5 µg/mL. In addition, the Effects on fetus entry in series [3] was “None in Humans”. In addition, the General toxicity entry in series [3] is on record as “Hypersensitivity”. Moreover, the “cytotoxic effects in hEBs compared to hES cells and HFF” value in series [2] (1000 μg/ml, FIG. 3C) is on record as “more cytotoxic effects”. This molecule also came in with an IC50-hEBs in series [2] (Table 5) of 1300 µg/mL (≈ 3890 µM). Further, the “Mouse EST IC50 - mES” value in series [4] was 2950 µg/mL. Also, the “Therap. range in human serum” value in series [5] was 300 to 500 µg/mL.

In the case of `NC(=O)NO` [Hydroxyurea, hydroxyurea], the IC50 in series [1] (setting [6]) worked out at 8.9 ± 0.9 µg/mL (≈ 117 µM); in series [1] (setting [7]), 8.9 ± 0.9 µg/mL (≈ 117 µM); in series [2] (360 h, read-out: IC50-hEB), 2.33 ± 0.2 µg/mL (≈ 30.6 µM); in series [2] (read-out: IC50-hEBs), 2.3 µg/mL (≈ 30.2 µM). Moreover, the “Mouse EST IC50 - mES” value in series [4] was 2.0 µg/mL. Moreover, in series [5], the “Therap. range in human serum” value is under 9.88 µg/mL.

Regarding `CS(=O)(=O)OCCCCOS(C)(=O)=O` [Busulfan, busulfan], the IC50 in series [1] (setting [6]) is 2.7 ± 0.2 µg/mL (≈ 11 µM); in series [1] (setting [7]), 2.7 ± 0.2 µg/mL (≈ 11 µM); in series [2] (360 h, read-out: IC50-hEB), 0.38 ± 0.03 µg/mL (≈ 1.54 µM); in series [2] (read-out: IC50-hEBs), 0.38 µg/mL (≈ 1.54 µM). For the same molecule, the Effects on fetus entry in series [3] is recorded as “Reproductive”. Also, the General toxicity result in series [3] was “Hematopoietic”. The molecule further displayed a cell survival in series [2] (hEBs, 1 μg/ml, CyQUANT, FIG. 4E) of 30%. The “Mouse EST IC50 - mES” value in series [4] is 2.1 µg/mL. In addition, the results for the “Therap. range in human serum” value in series [5] and in series [5] (listed as busulfan) were under 0.6 µg/mL and “less than 0.6 μg/ml”, respectively.
